Source: patent US20240254119A1 (THIRD HARMONIC BIO, INC., priority 2022, published 2024)

Columns and labels:
wtKIT = molecular target: T1, wtKIT (Homo sapiens, UniProt P10721); assay: HTRF biochemical assay, wtKIT (phosphorylation of a peptide substrate); details: Table 4
T1 construct: 1888289AM in the reaction mixtures
Method in brief: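 wtKIT (5.0 nM) phosphorylating 1 µM FAM-labelled peptide with 400 µM ATP and 10 mM MnCl2 in 100 mM HEPES pH 7.5, 1% DMSO, 3 h at 25 °C. EDTA quench; phosphopeptide detected with anti-phosphotyrosine antibody by HTRF. Enzyme titrated for 10-20% substrate conversion.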

Caco-2 cells = assay: Caco-2 permeability assay; assay type: in vitro ADME; details: for Caco-2: Papp A-B: Caco-2, apical to basolateral
Description: Exemplary compounds were tested for cell permeability in Caco-2, MDCKII-MDR1 and MDCKII-BCRP cell lines with efflux transporter engagement inferred from the efflux ratios determined. Procedures and results are described below. […] This feature of certain compounds is in part due to efflux transporter engagement. See, for instance, exemplary such compounds included in data tables below.
The transport buffer in the study was HBSS with 10.0 mM HEPES at pH 7.40±0.05. Test compound was tested at 2.00 μM bi-directionally in duplicate. Digoxin was tested at 10.0 μM bi-directionally in duplicate, while nadolol and metoprolol were tested at 2.00 μM in A to B direction in duplicate. Final DMSO concentration was adjusted to less than 1%. The plate was incubated for 2 hours in CO2 incubator at 37±1° C., with 5% CO2 at saturated humidity without shaking. And all samples after mixed with acetonitrile containing internal standard were centrifuged at 3200×g for 10 min. For nadolol and metoprolol, 200 μL supernatant solution was diluted with 600 μL ultra-pure water for LC-MS/MS analysis. For digoxin and test compounds, 200 μL supernatant solution was diluted with 200 μL ultra-pure water for LC-MS/MS analysis. Concentrations of test and control compounds in starting solution, donor solution, and receiver solution were quantified by LC-MS/MS methodologies, using peak area ratio of analyte/internal standard.
After transport assay, lucifer yellow rejection assay was applied to determine the Caco-2 cell monolayer integrity.
[…] And permeation of lucifer yellow through the monolayer was measured to evaluate the cellular integrity.
The apparent permeability coefficient Papp (cm/s) was calculated using the equation: Papp=(dCr/dt)×Vr/(A×C0), where dCr/dt is the cumulative concentration of compound in the receiver chamber as a function of time (μM/s); Vr is the solution volume in the receiver chamber (0.075 mL on the apical side, 0.25 mL on the basolateral side); A is the surface area for the transport, i.e. 0.0804 cm^2 for the area of the monolayer; C0 is the initial concentration in the donor chamber (μM).
The efflux ratio was calculated using the equation: Efflux Ratio=Papp (BA)/Papp(AB).
Percent recovery was calculated using the equation: % Solution Recovery=100×[(Vr×Cr)+(Vd×Cd)]/(Vd×C0), where Vd is the volume in the donor chambers (0.075 mL on the apical side, 0.25 mL on the basolateral side); Cd and Cr are the final concentrations of transport compound in donor and receiver chambers, respectively.

T1 sequence (P10721 26-976): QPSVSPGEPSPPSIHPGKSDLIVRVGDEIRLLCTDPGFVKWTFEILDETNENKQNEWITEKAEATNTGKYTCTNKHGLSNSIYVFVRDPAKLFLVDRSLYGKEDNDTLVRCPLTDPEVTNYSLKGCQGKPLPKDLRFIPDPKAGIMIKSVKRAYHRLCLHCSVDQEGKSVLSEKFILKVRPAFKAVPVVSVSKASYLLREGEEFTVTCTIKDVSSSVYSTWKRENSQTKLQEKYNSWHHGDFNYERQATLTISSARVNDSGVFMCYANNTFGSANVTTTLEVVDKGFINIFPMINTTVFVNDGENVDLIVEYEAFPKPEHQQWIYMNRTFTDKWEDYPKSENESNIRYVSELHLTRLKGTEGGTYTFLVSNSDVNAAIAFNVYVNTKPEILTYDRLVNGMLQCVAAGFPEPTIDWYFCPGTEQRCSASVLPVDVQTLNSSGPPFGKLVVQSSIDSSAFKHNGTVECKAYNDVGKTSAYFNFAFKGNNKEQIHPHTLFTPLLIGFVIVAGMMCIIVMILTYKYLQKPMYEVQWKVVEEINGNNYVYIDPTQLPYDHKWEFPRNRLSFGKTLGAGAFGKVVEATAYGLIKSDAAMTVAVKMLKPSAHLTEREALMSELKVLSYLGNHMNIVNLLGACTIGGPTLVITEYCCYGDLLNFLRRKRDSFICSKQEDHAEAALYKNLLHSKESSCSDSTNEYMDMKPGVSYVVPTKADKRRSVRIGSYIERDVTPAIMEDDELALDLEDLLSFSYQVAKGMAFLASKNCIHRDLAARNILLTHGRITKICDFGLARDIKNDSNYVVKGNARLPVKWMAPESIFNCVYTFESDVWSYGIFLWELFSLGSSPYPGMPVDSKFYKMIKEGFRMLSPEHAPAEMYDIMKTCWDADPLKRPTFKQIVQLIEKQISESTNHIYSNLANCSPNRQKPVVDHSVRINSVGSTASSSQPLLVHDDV

Structure (SMILES)	IC50 (wtKIT)	Caco-2: Efflux Ratio (Caco-2 cells)	Caco-2: Papp A-B (Caco-2 cells)
COC(=O)N1CC(c2nc(-c3ccc(C(F)F)c(NC(=O)c4cnc5ccccn45)c3)no2)C1 [Compound I-225]	≤ 50 nM	1.37	9.62 10^−6 cm/s
Cc1ccc(-c2noc([C@H]3C[C@@H]3F)n2)cc1NC(=O)c1cnc2ccc(F)cn12 [Compound I-288]	≤ 50 nM	0.56	17.4 10^−6 cm/s
Cc1ccc(-c2noc(CCO)n2)cc1NC(=O)c1cnc2ccccn12 [Compound I-306]	50 to 500 nM	3.66	7.03 10^−6 cm/s
Cc1ccc(-c2noc(CC(C)(C)O)n2)cc1NC(=O)c1cnc2ccccn12 [Compound I-336]	50 to 500 nM	2.62	9.39 10^−6 cm/s
COC(=O)N1CC(c2nc(-c3ccc(Cl)c(NC(=O)c4cnc5ccccn45)c3)no2)C1 [Compound I-339]	≤ 50 nM	0.56	22.2 10^−6 cm/s
Cc1ccc(-c2noc([C@H]3CC(F)(F)CN3)n2)cc1NC(=O)c1cnc2ccccn12 [Compound I-359]	50 to 500 nM	1.19	9.88 10^−6 cm/s
Cc1nc(-c2ccc(C)c(NC(=O)c3cnc4ccccn34)c2)no1 [Compound I-360]	≤ 50 nM	0.36	12.7 10^−6 cm/s
Cc1ccc(-c2noc(C3CC(OCCF)C3)n2)cc1NC(=O)c1cnc2ccccn12 (stereo not drawn) [Compound I-369]	≤ 50 nM	0.77	20.6 10^−6 cm/s
